Data on two substances can be found in patent US9492508B2, “Parathyroid hormone analogs and uses thereof” (The General Hospital Corporation, priority 2010, dated 2016).

Ends that are not written are not given here.

What is called EC50 is the midpoint of the concentration-response curve. A word on the IC50: it is the point on the concentration scale where inhibition reaches its midpoint.

For test [1], the target named is T1, human PTHR1 (R0) (Homo sapiens, UniProt Q03431).
T1 construct: expressed in transfected cells; host or cells: COS-7 cells (membranes)
T1 sequence (Q03431 27-593): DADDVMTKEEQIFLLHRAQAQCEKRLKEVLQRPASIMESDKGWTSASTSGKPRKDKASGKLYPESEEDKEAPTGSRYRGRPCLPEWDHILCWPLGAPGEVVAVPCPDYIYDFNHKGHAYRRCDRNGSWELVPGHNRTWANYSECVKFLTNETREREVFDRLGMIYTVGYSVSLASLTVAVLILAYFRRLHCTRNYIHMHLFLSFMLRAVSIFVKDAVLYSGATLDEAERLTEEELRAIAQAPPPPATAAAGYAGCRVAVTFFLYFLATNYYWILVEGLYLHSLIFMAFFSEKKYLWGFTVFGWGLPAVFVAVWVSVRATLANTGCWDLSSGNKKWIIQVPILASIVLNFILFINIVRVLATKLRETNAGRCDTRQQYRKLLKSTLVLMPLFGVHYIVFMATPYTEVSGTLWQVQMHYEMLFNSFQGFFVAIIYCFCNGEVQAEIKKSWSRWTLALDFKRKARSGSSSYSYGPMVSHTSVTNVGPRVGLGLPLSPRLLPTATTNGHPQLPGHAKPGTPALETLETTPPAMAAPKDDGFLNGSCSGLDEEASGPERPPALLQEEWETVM
Nature of the test: Competition binding, R0 conformation of human PTHR1 (COS-7 membranes, 125I-PTH(1-34) tracer, GTPγS). The settings on record: for R0 binding at human PTH receptor as compared to PTH(1-34): FIG. 5A. As to the method:
(§1) Briefly, the R^0 form of the receptor can be favored by addition of the non-hydrolyzable nucleotide analog GTPγS. The RG form can be favored, for example, by co-transfection of cells with a negative dominant Gαs subunit. […] Data are means of four experiments, each performed in duplicate. Curves were fit to the data using Graph-Pad Prism 4.0.
Here, competition binding assays for the R^0 and RG PTHR1 conformation were performed in membranes prepared from transfected COS-7 cells, as described by Dean et al., Mol Endocrinol 22:156-66, 2008. Data are means of three experiments, each performed in duplicate. Curves were fit to the data using Graph-Pad Prism 4.0.

Test [2] has as its target T2, rat PTHR1 (R0) (Rattus norvegicus, UniProt P25961).
T2 sequence (P25961 27-591): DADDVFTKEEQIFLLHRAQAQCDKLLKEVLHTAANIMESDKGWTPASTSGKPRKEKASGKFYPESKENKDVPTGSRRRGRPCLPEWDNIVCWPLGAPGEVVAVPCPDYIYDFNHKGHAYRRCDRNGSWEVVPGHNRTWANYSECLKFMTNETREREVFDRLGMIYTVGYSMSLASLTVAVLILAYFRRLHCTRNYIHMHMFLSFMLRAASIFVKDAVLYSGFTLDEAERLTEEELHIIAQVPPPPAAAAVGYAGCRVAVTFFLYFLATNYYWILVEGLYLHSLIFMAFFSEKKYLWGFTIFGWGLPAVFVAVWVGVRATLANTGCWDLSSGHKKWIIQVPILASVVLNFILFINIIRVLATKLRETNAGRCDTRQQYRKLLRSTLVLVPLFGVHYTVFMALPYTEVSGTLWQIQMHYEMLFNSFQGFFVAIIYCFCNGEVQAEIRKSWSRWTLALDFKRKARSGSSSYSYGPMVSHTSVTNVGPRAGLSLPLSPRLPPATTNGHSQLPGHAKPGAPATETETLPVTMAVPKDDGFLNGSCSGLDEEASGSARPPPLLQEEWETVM
Nature of the test: Competition binding, R0 conformation of rat PTHR1. The settings on record: for IC50: R0 conformation, mean of 4 experiments, read-out: Binding rat PTHR1 IC50 (Log M) R0 (converted).
Source text: as §1

In test [3] the test system is MC3T3-E1 cells. Nature of the test: cAMP RIA in intact MC3T3-E1 cells. The test is classed as cell-based, mouse. The settings on record: 30 min, room temperature, IBMX; for cAMP MC3T3-E1 cells EC50 (Log M): 6 experiments. An outline of the steps: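 Intact mouse pre-osteoblastic MC3T3-E1 cells were stimulated with polypeptide. cAMP in HCl lysates was measured by radioimmunoassay. Values are means of six duplicate experiments with fitted curves.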

Test [4] relates to MC3T3-E1 cells. In words: cAMP response following ligand wash-out in MC3T3-E1 cells. The test is classed as cell-based, mouse. The settings on record: 100 nM ligand 5 min, then wash-out; FIGS. 7A, 7B. The protocol: Cells were treated at room temperature with vehicle or the indicated ligand (100 nM) for five minutes; for each ligand duplicate wells were used to obtain the initial (maximum cAMP values); in these wells, cells were co-incubated with ligand and IBMX. After five minutes of initial treatment, the buffer was removed, and, for the initial wells, the reactions were terminated by addition of 50 mM HCl. In the other wells, the cells were rinsed three times with buffer, and incubated in buffer for varying times, as indicated on the abscissa; after which the buffer was replaced by a buffer containing IBMX, and the cells were incubated for another five minutes. After that, the buffer was removed and the reactions were terminated by addition of 50 mM HCl. The cAMP contents of the HCl lysates were then determined by RIA.

A short description of test [5]: Hypercalcemic assay in cynomolgus monkeys (serum and urinary calcium and phosphate). The test is classed as in vivo, cynomolgus monkey. The settings on record: for serum calcium: 0.25 nmol/kg intravenous, FIG. 12A; for serum calcium, subcutaneous two doses: 2.5 or 10 nmol/kg subcutaneous, FIG. 15A. The protocol:
The effects of the SP-PTH (SEQ ID NO:11) and SP-PTH-AAK (SEQ ID NO:4) (“SP-AAK”) on serum and urinary calcium and phosphate levels were tested in cynomolgus monkeys. Briefly, three- or four-year-old, male cynomolgus monkeys (HAMRI Co., Ltd., Ibaraki, Japan) were measured for their body weight. Blood was collected into tubes. Monkeys received intravenous or subcutaneous administration of each polypeptide at a dose of 0.3 ml/kg. Polypeptide concentrations in stock solution were adjusted by dilution with 25 mmol/L phosphate-citrate buffer/100 mmol/L NaCl/0.05% Tween 80 (pH.5.0) (PC-buffer). All polypeptides were allowed to stand on ice immediately before administration. Polypeptides were administered to groups of three monkeys each respectively. At 1, 2, 4, and 8 hours after administration, blood was collected by saphenous vein to monitor the time course of calcium and phosphorus levels (FIG. 11A).
Similar experiments were performed using subcutaneous injection of the polypeptides using two different doses (2.5 nmol/kg or 10 nmol/kg; FIG. 14). […] Reductions in serum inorganic phosphate were also observed (FIGS. 15B and 15C). […] Urine calcium and phosphate data were also collected. Urine was collected in 24-hour intervals prior to injection (T=0) and at times thereafter and assessed for Ca (FIGS. 15E and 15G), Pi (FIGS. 15F and 15H) and creatinine; [Ca] and [PI] are expressed as ratios to [creatinine]. FIGS. 15G and 15H present the change from the pre-injection values. Data are means±s.e.m.; n=3/group.

Consider “AVAEIQLMHQRAKWIQDARRRAFLHKLIAEIHTAEI-OH [SP-PTH-AAK, [Ala^1,3,12,18,22,Gln^10,Arg^11,Trp^14,Lys^26]PTH(1-14)/PTHrP(15-36)]”, for which the “R0 binding at human PTH receptor as compared to PTH(1-34)” value in test [1] was “enhanced R^0 binding”. In addition, in test [2] (FIG. 1A), the “binding to R0 form of rat PTHR1, comparison in words” value was “strongest binding” and the “stronger binding to the R0 form of the rat PTH receptor as compared to PTH(1-34)” value is recorded as “greater than two orders of magnitude increase in binding”. Also, the concentration for a half-maximal effect (EC50) in test [2] (FIG. 1A, read-out: log EC50, binding to the R0 form of the rat PTH receptor (converted)) was 200 pM. In addition, in test [2], the half-inhibitory concentration (IC50) was 209 pM. In test [3], the EC50 is 6.3 pM, the “cAMP MC3T3-E1 cells Emax (pmole/well)” value stood at 62.3 ± 13.6 pmole/well and the “cAMP MC3T3-E1 cells EC50 (Log M)” value is −11.2 ± 0.2 Log M. Further, the “cAMP-stimulating activity after ligand wash-out” value in test [4] is given as “maintained cAMP-stimulating activity for longer periods of time than PTH(1-34)”. Besides, in test [5], the serum calcium result is listed as “increased serum calcium” and the “serum calcium, subcutaneous two doses” value was “increases in serum calcium were observed in a dose dependent manner”.
Consider “AVAEIQLMHQRAKWIQDLRRRFFLHHLIAEIHTAEI-OH [SP-PTH, [Ala^1,3,12,Gln^10,Arg^11,Trp^14]PTH(1-14)/PTHrP(15-36)]”, for which, in test [1], the “R0 binding at human PTH receptor as compared to PTH(1-34)” value was “enhanced R^0 binding”. In addition, in test [1] (R0 conformation, mean of 3 experiments, read-out: Binding human PTHR1 IC50 (Log M) R0 (converted)), the half-inhibitory concentration (IC50) is 1380 pM. For the same substance, the IC50 in test [2] is 1450 pM. For the same substance, in test [3], the response was half-maximal at 44 pM (EC50), the “cAMP MC3T3-E1 cells Emax (pmole/well)” value is 60.6 ± 12.4 pmole/well and the “cAMP MC3T3-E1 cells EC50 (Log M)” value was −10.4 ± 0.1 Log M. Also, the “cAMP-stimulating activity after ligand wash-out” value in test [4] was “maintained cAMP-stimulating activity for longer periods of time than PTH(1-34)”. Moreover, in test [5], the serum calcium result is “increased serum calcium” and the “serum calcium, subcutaneous two doses” value was “increases in serum calcium were observed in a dose dependent manner”.
